The values that follow come from patent US8614333B2, “Acenaphtho heterocyclic compound and application thereof” (Dalian University of Technology, priority 2010, dated 2013).

The subject of one data set is Mcl-1. In words: Western blotting, semiquantitative analysis of Mcl-1 protein bands. Type of data set: cell-based. Conditions: tumor cells; for concentration of the protein bands (semiquantitative, normalized), Mcl-1: control = 1. As to the method:
(§1) The interest protein was detected by the corresponding antibody. The expression of the interest protein in the cells was detected by horseradish peroxidase-labeled secondary antibodies in combination with ECL coloration method. […] The concentration of the protein bands in the Western images were carried out semiquantitative analysis and normalization treatment with KODAK Gel Logic 1500 imaging system software.
(In general: In western blotting, separated proteins are transferred to a membrane and probed.)

The next data set addresses Bcl-2 protein (Homo sapiens, UniProt P10415). In words: ELISA assay, competitive binding to Bcl-2 protein (biotin-Bim/streptavidin plate). Conditions: method calculates average IC50, read-out: Bcl-2 binding constants. As to the method: (§2) The present inventors used fluorescence polarization assay to detect the bonding force between the protein and the compounds in a previous study (PCT/CN2010/075521). […] ELISA assay was used to detect the bonding force between the compounds and the protein in this application.
(§3) Biotinylated Bim peptide was diluted to 0.09 μg/mL in SuperBlock blocking buffer in PBS and incubated for 1.5 h in 96-well microtiter plates already coated with streptavidin to allow the formation of the complex between Biotin-Bim and streptavidin. All incubations were performed at room temperature unless otherwise noted. Each inhibitor was first dissolved in pure DMSO to obtain a 10 mM stock solution. For each tested inhibitor, different concentrations of the inhibitor were incubated with 20 nM His-tagged Mcl-1 protein in PBS for 1 h with a final DMSO concentration of 4%. The plates were washed three times with PBS containing 0.05% Tween-20. The inhibitor and protein mixture (100 μL) were transferred to the plate containing the biotin-Bim/streptavidin complex and incubated for 2 h. The plate was then washed as before and mouse anti-His antibody that conjugated with horseradish peroxidase was added into the wells and incubated for 1 h. The plate was then washed with PBS containing 0.05% Tween-20. Finally, TMB was added to each well; the enzymatic reaction was stopped after 30 min by addition of H2SO4 (100 μL, 2M). Absorbances were measured with a TECAN GENios (Swiss, TECAN) microplate reader using a wavelength of 450 nm. Three independent experiments were performed with each inhibitor to calculate average IC50 value and standard deviation (SD).
(§4) The BH3 analogous degrees of other 11 compounds were detected by using the experimental method as described above. The protein binding constant (binding constant in table 1) between them and Bcl-2 and Mcl-1 proteins were also on nM grade.

The target in data set [1] is T1, interaction between Bcl-2 and Bax (Homo sapiens, UniProt P10415).
T1 construct: expressed in transfected cells; host or cells: Hela cells
T1 sequence (P10415 whole entry): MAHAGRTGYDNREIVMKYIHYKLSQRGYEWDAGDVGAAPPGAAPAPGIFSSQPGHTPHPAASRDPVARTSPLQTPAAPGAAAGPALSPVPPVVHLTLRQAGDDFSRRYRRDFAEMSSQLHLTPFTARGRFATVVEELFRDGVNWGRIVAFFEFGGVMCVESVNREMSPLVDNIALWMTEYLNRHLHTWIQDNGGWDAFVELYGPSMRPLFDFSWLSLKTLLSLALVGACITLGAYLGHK
In words: Intracellular FRET, Bcl-2-CFP/Bax-YFP in Hela cells. Type of data set: cell-based. Conditions: for Time (time period after which the interaction between Bcl-2 and Bax was interfered): at the concentration given. As to the method:
2 μg of Bcl-2-CFP and Bax-YFP plasmids were transfected separately or simultaneously into Hela cells by using calcium phosphate coprecipitation method, 24 hours later, the cells were inoculated in a 6-well plate (2×10^5 cells/well), and the compound 1 to be detected dissolved in DMSO was added there into until the final concentration (2, 5, 10 and 15 μM) was achieved. 24 hours later (please refer to FIG. 5); the cells were washed with PBS for three times. The fluorescence value was detected by GENIOS fluorescence enzyme-labelled meter (TECAN, Swiss). In time-dependent experiment, the transfected cells were inoculated in a 6-well plate, after that, 40 μM of the compound was added thereinto. 3, 6 and 24 hours later (FIG. 6), the fluorescence intensities were detected by plate reader. As for the cell group in which only Bcl-2-CFP plasmid was transfected, the values at 475 nm emission wave length and 433 nm excitation wave length were recorded. As for the cell group in which only Bax-YFP plasmid was transfected, the values at 527 nm emission wave length and 505 nm excitation wave length were recorded. As for the cell group in which Bcl-2-CFP and Bax-YFP plasmids were co-transfected, the values at 527 nm and 475 emission wave lengths and 433 nm excitation wave length were recorded. The ratio of fluorescence intensity at 527 nm and 475 nm emission wave lengths was FRET. The FRET for the control group in which the plasmid was solely transfected was set as 1.0. […] In the cotransfected cells, the FRET increased up to 2.0 due to the interaction of Bcl-2 protein and Bax protein, and that the interference to the interaction between the two proteins increased and FRET decreased with the increase of the drug concentration and time. The cellular vitality was detected by MTT method. When the concentration of the compound reached 1 μM, the interaction between Bcl-2 and Bax can be interfered after 2 hours, and the results appeared concentration-time dependent trend.
Wherein the concentration and time meant that the detected compound interfered with the interaction between Bcl-2 and Bax at the concentration for the time period.

The test system of another data set is MCF-7 cells. In words: Cytotoxicity by MTT, cells without plasmid transfection. Type of data set: cell-based. Conditions: Homo sapiens, MCF7; MCF-7, MTT, 48 hours; read-out: IC50 value in untransfected cells. Here is the method: (§5) 3 μg of BAX/BAK interfering plasmid was transfected into MCF-7 cells by using calcium phosphate coprecipitation method, 24 hours later, the cells were collected. The expressions after the BAX and BAK proteins interfered with RNA was detected by Western, and the cell groups without plasmid transfection were treated similarly and were set as the control group. The transfected cells were inoculated in a 96-well plate (1×10^5 cells/well), the control experiment of the cell group without plasmid transfection was carried out in parallel. The compound 1 to be detected was added thereinto according to the concentration gradient designed before the experiment. 48 hours later, the cellular vitality was detected by MTT. The experimental results were shown in FIG. 9, Gossypol as nonspecific BH3 analogue was treated in parallel.
(§6) Other 24 compounds were also detected by the same experimental method as described above, the differences of IC50 values between the transfected cells and the without plasmid transfection cells were compared.

Data set [2] deals with BAX shift towards the chondriosome. The data set can be described thus: Co-localization between Bax protein and chondriosome, Bax-YFP in MCF-7 cells. Type of data set: cell-based. Conditions: for Doses (concentration at which the compound drove the BAX to shift towards the chondriosome): Bax-YFP/Mito Tracker Red; for Time (time period after which BAX shifted towards the chondriosome): at the concentration given. Here is the method:
5 μg of Bax-YFP plasmid was transfected into MCF-7 cells by using calcium phosphate coprecipitation method, 24 hours later, the cells were inoculated in a 6-well plate (0.2×10^6 cells/well), and 10 μM of the compound 1 to be detected was added thereinto. 6 hours later, the cells were washed with PBS and hatched away from light with 50 nM Mito Tracker Red CMXRos (chondriosome specific probes; red) for 10 minutes. Then the cells were washed with PBS for three times, and the fluorescent image was scanned with Radiance2000 laser confocal microscopy (Bio-Rad, USA). Meanwhile, dual channel scanning was carried out, one channel was used to scan the green fluorescence of Bax-YFP, and the other channel was used to scan the red fluorescence of the CMXRos probe for indicating the chondriosome. […] When the Bax protein was localized on the chondriosome, the green and red fluorescence was superimposed into orange, as shown in FIG. 7.
Other 24 compounds were detected by the same experimental method as described above. […] Wherein the concentration and time meant that the detected compound simulated the BH3-only protein and driven the BAX to shift towards the chondriosome at the concentration for the time period.

Data set [3] concerns MCF-7 cells transfected with BAX/BAK interfering plasmid. The data set can be described thus: Cytotoxicity by MTT, cells transfected with BAX/BAK interfering plasmid. Type of data set: cell-based. The following applies: for IC50: Homo sapiens, MCF7, MCF-7 with BAX/BAK interfering plasmid, MTT, 48 hours. Here is the method:
as §5, §6

A further data set concerns the target His-tagged Mcl-1 protein (Homo sapiens, UniProt Q07820). In words: ELISA assay, competitive binding to Mcl-1 protein (biotin-Bim/streptavidin plate). The following applies: 20 nM His-tagged Mcl-1, method calculates average IC50, read-out: Mcl-1 binding constants. Here is the method:
as §2, §3, §4

In another data set the test system is Bcl-2. In words: Western blotting, semiquantitative analysis of Bcl-2 protein bands. Conditions: tumor cells; for concentration of the protein bands (semiquantitative, normalized), Bcl-2: control = 1. Type of data set: cell-based. Here is the method: as §1

“And” between values parts separate entries of the source, which are not always exact repeats. Equal entries are not always repeated. A value given as a limit tells only on which side of the number the result lay.

Chain of His-tagged Mcl-1 protein (Q07820 whole entry): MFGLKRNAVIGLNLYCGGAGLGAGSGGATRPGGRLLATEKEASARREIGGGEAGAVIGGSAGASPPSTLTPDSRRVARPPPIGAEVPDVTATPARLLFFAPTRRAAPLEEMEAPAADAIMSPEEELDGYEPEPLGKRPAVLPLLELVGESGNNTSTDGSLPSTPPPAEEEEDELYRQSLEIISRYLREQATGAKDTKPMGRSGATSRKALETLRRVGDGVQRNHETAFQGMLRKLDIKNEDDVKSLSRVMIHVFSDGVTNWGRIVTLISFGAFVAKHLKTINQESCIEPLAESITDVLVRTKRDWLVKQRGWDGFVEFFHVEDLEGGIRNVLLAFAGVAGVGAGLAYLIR
Chain of Bcl-2 protein (P10415 whole entry, species assumed): as the sequence (P10415 whole entry) above

In the case of `CCCCNC1=C2C(=NC1=O)c1cccc3cccc2c13` [Compound 1, 9-n-Butylamino-8H-acenaphtho[1,2-b]pyrrol-8-one], the “concentration of the protein bands (semiquantitative, normalized), Mcl-1” value in the data set with Mcl-1 (2 h) amounted to 0.79; in the data set with Mcl-1 (6 h), 0.35. Moreover, the “inhibition against Mcl-1 (in words)” value in the data set on Mcl-1 (Western blotting) is “had the inhibition against these two proteins”. Besides, the IC50 on Bcl-2 protein is 142 nM; with MCF-7 cells it was 4000 nM; in data set [3] it was greater than 50000 nM; on His-tagged Mcl-1 protein it was 49 nM. Besides, the “Doses (concentration at which the compound interfered with the interaction between Bcl-2 and Bax)” value in [1] was 1 µM and 1.0 µM. In addition, in data set [1], the “Time (time period after which the interaction between Bcl-2 and Bax was interfered)” value worked out at 2 h. Besides, the “Doses (concentration at which the compound drove the BAX to shift towards the chondriosome)” value in data set [2] was determined as 1.0 µM. In addition, in data set [2], the “Time (time period after which BAX shifted towards the chondriosome)” value is given as 3 h. Besides, in data set [3] (comparison of transfected and untransfected MCF-7 cells), the “dependence of cytotoxicity on BAX/BAK” value was “absolute dependence on BAX/BAK”. For the same compound, the “concentration of the protein bands (semiquantitative, normalized), Bcl-2” value is given as 0.99 in the data set on Bcl-2 (6 h), 0.99 in the data set with Bcl-2 (12 h), 0.58 in the data set on Bcl-2 (18 h) and 0.21 in the data set with Bcl-2 (24 h). The “inhibition against Bcl-2 (in words)” value in the data set on Bcl-2 (Western blotting) is “had the inhibition against these two proteins”.
What is called melting point is the temperature of the solid-liquid transition. The compound `CCCCCCNC1=C2C(=NC1=O)c1cccc3cccc2c13` [Compound 2, 9-n-Hexylamino-acenaphtho[1,2-b]pyrrol-8-one] registered a melting point of 234 to 235 °C. Further, the “concentration of the protein bands (semiquantitative, normalized), Mcl-1” value in the data set with Mcl-1 (2 h) was found to be 0.70. Moreover, in the data set on Mcl-1 (6 h), the “concentration of the protein bands (semiquantitative, normalized), Mcl-1” value was 0.31. The IC50 at Bcl-2 protein is 28 nM. Besides, in [1], the “Doses (concentration at which the compound interfered with the interaction between Bcl-2 and Bax)” value was 0.4 µM; the “Time (time period after which the interaction between Bcl-2 and Bax was interfered)” value is on record as 3 h. Moreover, the IC50 in the data set on MCF-7 cells stood at 3500 nM. Moreover, in data set [2], the “Doses (concentration at which the compound drove the BAX to shift towards the chondriosome)” value was determined as 0.5 µM and the “Time (time period after which BAX shifted towards the chondriosome)” value is 3 h. This compound displayed an IC50 in data set [3] greater than 50000 nM. Further, on His-tagged Mcl-1 protein, the IC50 is 25 nM. The “concentration of the protein bands (semiquantitative, normalized), Bcl-2” value with Bcl-2 (6 h) was 0.99. Moreover, the “concentration of the protein bands (semiquantitative, normalized), Bcl-2” value in the data set with Bcl-2 (12 h) was 0.99. For the same compound, the “concentration of the protein bands (semiquantitative, normalized), Bcl-2” value with Bcl-2 (18 h) is 0.50. Moreover, the “concentration of the protein bands (semiquantitative, normalized), Bcl-2” value in the data set with Bcl-2 (24 h) was determined as 0.19.
`CCOc1ccc2c3c(cccc13)C1=NC(=O)C(NCCCc3ccccc3)=C12` [Compound 4, 3-Ethoxy-9-(3-phenyl-propylamino)-acenaphtho[1,2-b]pyrrol-8-one] yielded a melting point of 250 to 251 °C. The IC50 at Bcl-2 protein was 35 nM. Moreover, in data set [1], the “Doses (concentration at which the compound interfered with the interaction between Bcl-2 and Bax)” value is 1.0 µM; the “Time (time period after which the interaction between Bcl-2 and Bax was interfered)” value was determined as 5 h. In addition, the IC50 in the data set on MCF-7 cells came out at 5600 nM. Also, in data set [2], the “Doses (concentration at which the compound drove the BAX to shift towards the chondriosome)” value worked out at 3.0 µM and the “Time (time period after which BAX shifted towards the chondriosome)” value turned out to be 4 h. In data set [3], this compound displayed an IC50 greater than 50000 nM. For the same compound, the IC50 on His-tagged Mcl-1 protein was 95 nM.
Compound `CCCCNC1=C2C(=NC1=O)c1cccc3c(C(=O)c4ccccc4)ccc2c13` [Compound 5, 3-Benzoyl-9-butylamino-acenaphtho[1,2-b]pyrrol-8-one] showed a melting point of 262 to 263 °C. Further, the IC50 at Bcl-2 protein is 65 nM. For the same compound, in data set [1], the “Doses (concentration at which the compound interfered with the interaction between Bcl-2 and Bax)” value was 2.0 µM; the “Time (time period after which the interaction between Bcl-2 and Bax was interfered)” value amounted to 6 h. In the data set with MCF-7 cells, the IC50 was 6500 nM. Also, in data set [2], the “Doses (concentration at which the compound drove the BAX to shift towards the chondriosome)” value came out at 5.0 µM and the “Time (time period after which BAX shifted towards the chondriosome)” value amounted to 5 h. Moreover, in data set [3], the IC50 was greater than 50000 nM. Besides, the IC50 on His-tagged Mcl-1 protein was 125 nM.
`CCCCN(C)C1=C2C(=NC1=O)c1cccc3cccc2c13` [Compound 6, 9-(Butyl-methyl-amino)-acenaphtho[1,2-b]pyrrol-8-one]: the melting point lay within 245 to 246 °C. In addition, at Bcl-2 protein, the IC50 was 45 nM. In data set [1], the “Doses (concentration at which the compound interfered with the interaction between Bcl-2 and Bax)” value stood at 2.0 µM; the “Time (time period after which the interaction between Bcl-2 and Bax was interfered)” value worked out at 5 h. In addition, the IC50 with MCF-7 cells was found to be 4000 nM. In data set [2], the “Doses (concentration at which the compound drove the BAX to shift towards the chondriosome)” value amounted to 4.0 µM and the “Time (time period after which BAX shifted towards the chondriosome)” value was determined as 4 h. The same compound showed an IC50 in data set [3] greater than 50000 nM. Moreover, the IC50 at His-tagged Mcl-1 protein is 66 nM.
